Read-outs that look alike come from different tables or passages of the source.
Molecular target: T1, human ANO1 channel (isoform acd) (Homo sapiens, UniProt Q5XXA6)
T1 construct: host or cells: HEK293T
T1 sequence (Q5XXA6 1-986): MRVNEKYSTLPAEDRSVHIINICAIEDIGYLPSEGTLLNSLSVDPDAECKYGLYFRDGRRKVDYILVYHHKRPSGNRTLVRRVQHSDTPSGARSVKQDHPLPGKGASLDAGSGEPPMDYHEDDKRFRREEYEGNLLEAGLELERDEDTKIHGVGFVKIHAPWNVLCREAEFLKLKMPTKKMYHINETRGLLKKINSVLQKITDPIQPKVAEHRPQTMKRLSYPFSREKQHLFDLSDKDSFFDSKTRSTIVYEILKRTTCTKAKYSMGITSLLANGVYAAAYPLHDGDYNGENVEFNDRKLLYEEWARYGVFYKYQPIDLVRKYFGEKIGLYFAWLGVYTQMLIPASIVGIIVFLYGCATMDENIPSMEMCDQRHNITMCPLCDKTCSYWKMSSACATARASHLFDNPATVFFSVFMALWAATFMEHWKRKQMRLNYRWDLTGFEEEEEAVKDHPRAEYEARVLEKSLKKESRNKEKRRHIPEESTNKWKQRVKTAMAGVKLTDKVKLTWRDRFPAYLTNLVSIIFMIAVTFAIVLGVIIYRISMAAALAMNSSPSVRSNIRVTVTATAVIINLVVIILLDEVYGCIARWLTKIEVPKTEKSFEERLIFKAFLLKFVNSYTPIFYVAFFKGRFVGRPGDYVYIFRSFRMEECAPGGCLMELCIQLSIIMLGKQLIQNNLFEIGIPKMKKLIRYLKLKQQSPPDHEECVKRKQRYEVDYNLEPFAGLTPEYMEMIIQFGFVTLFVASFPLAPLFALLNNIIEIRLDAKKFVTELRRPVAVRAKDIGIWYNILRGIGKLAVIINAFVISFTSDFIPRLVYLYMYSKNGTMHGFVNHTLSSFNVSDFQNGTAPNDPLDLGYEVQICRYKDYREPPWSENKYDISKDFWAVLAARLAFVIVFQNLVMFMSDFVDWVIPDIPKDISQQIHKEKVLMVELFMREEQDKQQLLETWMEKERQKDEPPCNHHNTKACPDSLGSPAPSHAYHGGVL
Assay: QPatch-48 single-concentration/multiple-addition (extended incubation) protocol
Format: cell-based
Method: As mentioned, due to the nature of the channel and its rundown issues, time limitations exist for recording. Therefore, each concentration of compound is added to the cell for a duration of 60 s. It is possible that the IC50 is shifted for those compounds that require a longer time to act on the channel. To account for this, a single-concentration/multiple-addition protocol was established (Fig. 6). […] This led us to wonder if we were missing the full response to the concentration before the next liquid period began and the more concentrated, cumulative addition was applied to the cell. The original application protocol was amended to allow for two 4-min incubations with the same concentration of compound. The total length of the assay is roughly 15 min, with two 1-min saline additions to stabilize current, two 1-min vehicle additions to account for any DMSO effects, and two 4-min compound additions, ending with two 1-min saline additions to look for washout effects. The same IV voltage protocol was used as well as the same whole-cell conditions and solutions. When niclosamide was run with this extended incubation protocol, the IC50 was four times as potent (Fig. 6), aligning nicely with the other in-house assays that were run. A DMSO condition was included to account for any rundown that occurred, with the result of 92% current remaining at the end of the assay. Therefore, the block observed with niclosamide additions was not due to rundown. When 240 nM was added, the current plateaued at ∼60% current amplitude. […] Any compounds that result in partial inhibition with the original assay can be run on the multiple-addition assay to see if they require more time to inhibit the channel.
Fig. 6. Current time plots of the modified protocol with multiple additions of a single concentration. Top: IT plot when 240 nM niclosamide is added to a cell. Bottom: IT plot when 1.2 μM niclosamide is added to a cell.

current amplitude at plateau (240 nM): ~60%
block in current after first 4-min incubation (1.2 μM, after first addition): 50%
final block after second addition (1.2 μM, after second 4-min addition): 78%
IC50 (Fig. 6 table in picture, read-out: IC50, Single Concentration- Multiple Additions): 352 nM
IC50 (single concentration, multiple additions, Fig. 6 curve, read-out: IC50, modified single-concentration assay): 352 nM
IC50 (two 4-min additions of the same concentration, n = 2, read-out: final IC50 (mean ± SD)): 221 ± 185 nM
Structure (SMILES): O=C(Nc1ccc([N+](=O)[O-])cc1Cl)c1cc(Cl)ccc1O [Niclosamide]

From PMC7268545, “Development of a QPatch-Automated Electrophysiology Assay for Identifying TMEM16A Small-Molecule Inhibitors” (Assay and Drug Development Technologies, 2020)
